In patent US9855268B2, “Triazolo[4,5-d]pyrimidine derivatives” (Merck Patent GmbH, priority 2013, dated 2018):
pIC50: −log10 of the molar value.

Assays:
Type in all cases: biochemical
[1] = target: GCN2 (Homo sapiens, UniProt Q9P2K8); assay: GCN2 enzyme assay (TR-FRET Lanthascreen, GFP-eIF2alpha phosphorylation); conditions: 10 μM ATP, 80 nM GFP-eIF2a, 30 nM GCN2
In short: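 Kinase reaction with 10 μM ATP and 80 nM GFP-labelled eIF2alpha substrate at room temperature, stopped with EDTA. Phospho-eIF2alpha detected by TR-FRET between antibody and GFP-substrate, excitation at 340 nm.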

[2] = target: GSK3α(h) (Homo sapiens, UniProt P49840); assay: GSK3α radiometric kinase assay (33P-ATP, phospho GS2 peptide); conditions: read-out: IC50 GSK3α (enzyme assay)
GSK3α(h), sequence (P49840 whole entry): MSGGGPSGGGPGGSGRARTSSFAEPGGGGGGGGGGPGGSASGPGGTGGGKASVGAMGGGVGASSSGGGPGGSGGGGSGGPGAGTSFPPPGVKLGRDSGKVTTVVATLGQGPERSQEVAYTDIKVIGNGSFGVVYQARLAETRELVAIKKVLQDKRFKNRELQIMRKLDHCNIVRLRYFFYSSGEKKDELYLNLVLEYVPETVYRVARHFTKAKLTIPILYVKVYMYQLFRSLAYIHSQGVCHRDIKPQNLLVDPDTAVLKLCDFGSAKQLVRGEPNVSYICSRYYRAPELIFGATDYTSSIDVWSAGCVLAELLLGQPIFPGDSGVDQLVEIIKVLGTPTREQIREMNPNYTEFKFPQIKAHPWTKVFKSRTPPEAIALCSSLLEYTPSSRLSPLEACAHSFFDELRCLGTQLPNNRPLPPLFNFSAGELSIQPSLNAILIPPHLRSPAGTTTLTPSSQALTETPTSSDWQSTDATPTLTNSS
In short: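 Human GSK3α incubated with 20 μM phospho-GS2 peptide in 8 mM MOPS pH 7,0, 10 mM Mg-acetate and [γ-33P]ATP (concentration as required), started with MgATP. After 40 minutes at room temperature, stopped with phosphoric acid; 33P incorporation measured by filtermat spotting and scintillation counting.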

[3] = target: GSK3β(h) (Homo sapiens, UniProt P49841); assay: GSK3β radiometric kinase assay (33P-ATP, phospho GS2 peptide); conditions: read-out: IC50 GSK3β (enzyme assay)
GSK3β(h), sequence (P49841 whole entry): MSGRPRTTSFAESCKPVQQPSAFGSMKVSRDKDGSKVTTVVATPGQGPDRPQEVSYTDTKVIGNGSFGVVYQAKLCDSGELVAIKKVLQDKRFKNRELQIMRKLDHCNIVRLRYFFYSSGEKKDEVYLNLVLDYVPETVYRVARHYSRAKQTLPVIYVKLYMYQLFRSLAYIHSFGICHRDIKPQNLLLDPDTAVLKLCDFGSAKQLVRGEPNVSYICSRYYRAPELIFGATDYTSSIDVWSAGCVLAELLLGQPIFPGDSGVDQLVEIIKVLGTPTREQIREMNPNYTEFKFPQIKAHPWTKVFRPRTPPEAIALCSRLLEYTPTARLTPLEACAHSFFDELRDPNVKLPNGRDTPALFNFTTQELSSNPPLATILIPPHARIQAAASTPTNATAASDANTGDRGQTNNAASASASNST
Experimental: GSK3β(h) is incubated with 8 mM MOPS pH 7,0, 0,2 mM EDTA, 20 μM
[…](p)EDEEE (phosphor GS2 peptide), 10 mM Mg-acetate and [gamma-33P-ATP](specific activity approx. 500 cpm/Pmol, concentration as required). The reaction is initiated by the addition of the MgATP. After incubation for 40 minutes at the room temperature, the Reaction is stopped by the addition of 3% phosphoric acid solution. 10 μL of reaction is then spotted onto a P30 filtermat and washed three times for 5 minutes in 50 mM phosphoric acid and once in methanol prior to drying and scintillation counting.

GCN2, sequence (Q9P2K8 whole entry, species assumed): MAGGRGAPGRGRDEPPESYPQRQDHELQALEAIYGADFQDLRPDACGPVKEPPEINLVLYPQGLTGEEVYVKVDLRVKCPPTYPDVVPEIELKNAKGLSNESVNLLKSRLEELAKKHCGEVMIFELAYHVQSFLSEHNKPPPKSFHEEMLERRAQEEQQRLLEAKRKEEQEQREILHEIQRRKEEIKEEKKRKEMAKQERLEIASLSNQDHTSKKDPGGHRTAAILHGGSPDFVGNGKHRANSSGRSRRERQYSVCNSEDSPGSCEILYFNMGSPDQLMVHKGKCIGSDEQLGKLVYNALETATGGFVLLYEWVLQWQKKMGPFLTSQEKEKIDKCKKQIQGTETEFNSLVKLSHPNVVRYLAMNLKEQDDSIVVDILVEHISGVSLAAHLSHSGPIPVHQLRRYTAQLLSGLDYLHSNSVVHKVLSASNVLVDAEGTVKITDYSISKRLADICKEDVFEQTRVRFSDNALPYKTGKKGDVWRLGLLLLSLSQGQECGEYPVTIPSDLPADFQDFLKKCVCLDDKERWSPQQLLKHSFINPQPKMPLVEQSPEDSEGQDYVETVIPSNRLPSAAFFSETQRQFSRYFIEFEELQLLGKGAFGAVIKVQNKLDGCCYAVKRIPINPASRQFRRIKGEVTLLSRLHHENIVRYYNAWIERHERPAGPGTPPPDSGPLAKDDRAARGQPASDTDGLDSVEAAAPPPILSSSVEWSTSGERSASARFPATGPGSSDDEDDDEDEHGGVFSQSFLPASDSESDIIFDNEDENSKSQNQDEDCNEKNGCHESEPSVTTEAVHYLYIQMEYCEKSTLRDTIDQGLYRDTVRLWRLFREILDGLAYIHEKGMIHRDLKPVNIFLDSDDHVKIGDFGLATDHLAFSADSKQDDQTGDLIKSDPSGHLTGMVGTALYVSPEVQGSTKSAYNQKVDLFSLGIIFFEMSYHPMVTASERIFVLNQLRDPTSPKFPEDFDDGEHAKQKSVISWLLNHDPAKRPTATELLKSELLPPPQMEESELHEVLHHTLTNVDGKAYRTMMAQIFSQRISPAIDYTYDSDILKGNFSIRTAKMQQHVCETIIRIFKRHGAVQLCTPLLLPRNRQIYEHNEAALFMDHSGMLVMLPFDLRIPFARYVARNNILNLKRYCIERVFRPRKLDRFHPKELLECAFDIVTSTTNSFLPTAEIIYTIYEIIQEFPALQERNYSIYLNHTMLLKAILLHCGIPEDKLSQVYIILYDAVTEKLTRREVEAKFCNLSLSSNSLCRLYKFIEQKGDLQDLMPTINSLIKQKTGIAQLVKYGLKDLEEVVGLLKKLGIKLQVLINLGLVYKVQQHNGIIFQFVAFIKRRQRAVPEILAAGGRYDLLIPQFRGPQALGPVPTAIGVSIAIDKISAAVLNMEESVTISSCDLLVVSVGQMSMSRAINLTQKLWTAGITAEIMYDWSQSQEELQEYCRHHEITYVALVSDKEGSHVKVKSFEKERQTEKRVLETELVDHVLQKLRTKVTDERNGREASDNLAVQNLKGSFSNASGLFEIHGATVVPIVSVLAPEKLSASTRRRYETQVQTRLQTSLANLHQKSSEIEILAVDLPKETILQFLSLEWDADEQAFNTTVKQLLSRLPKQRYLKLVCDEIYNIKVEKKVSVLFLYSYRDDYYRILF

Row | pIC50 [1] | pIC50 [2] | pIC50 [3] | SMILES
1 | > 6.00 | > 6.00 | 5.30 to 6.00 | COc1ccc(-n2nnc3cnc(N[C@@H]4CCC[C@@H](C(N)=O)C4)nc32)cc1 (relative stereo) [A148, (trans)-3-[3-(4-methoxy-phenyl)-3H-[1,2,3]triazolo[4,5-d]pyrimidin-5-ylamino]-cyclohexanecarboxylic acid amide]
2 | > 6.00 | > 6.00 | > 6.00 | NC(=O)[C@@H]1CC[C@@H](Nc2ncc3nnn(-c4ccc(OCCn5cccn5)cc4)c3n2)C1 [A160, (1R,3R)-3-{3-[4-(2-pyrazol-1-yl-ethoxy)-phenyl]-3H-[1,2,3]triazolo[4,5-d]-pyrimidin-5-ylamino}-cyclopentanecarboxylic acid amide]
3 | > 6.00 | > 6.00 | > 6.00 | CCOCCn1cc(-c2ccc(-n3nnc4cnc(N[C@@H]5CC[C@@H](C(N)=O)C5)nc43)cn2)cn1 [A229, (1R,3R)-3-(3-{6-[1-(2-ethoxy-ethyl)-1H-pyrazol-4-yl]-pyridin-3-yl}-3H-[1,2,3]triazolo[4,5-d]pyrimidin-5-ylamino)-cyclopentanecarboxylic acid amide]
4 | > 6.00 | > 6.00 | 5.30 to 6.00 | COc1ccc(-n2nnc3cnc(N[C@@H]4CCN(C(N)=O)C4)nc32)cc1 [A285, (R)-3-[3-(4-Methoxy-phenyl)-3H-[1,2,3]triazolo[4,5-d]pyrimidin-5-ylamino]-pyrrolidine-1-carboxylic acid amide]
5 | > 6.00 | > 6.00 | > 6.00 | NC(=O)[C@@H]1CC[C@@H](Nc2ncc3nnn(-c4ccc5ncccc5n4)c3n2)C1 [A194, (1R,3R)-3-(3-[1,5]naphthyridin-2-yl-3H-[1,2,3]triazolo[4,5-d]pyrimidin-5-ylamino)-cyclopentanecarboxylic acid amide]
6 | > 6.00 | > 6.00 | > 6.00 | NC(=O)[C@@H]1CC[C@@H](Nc2ncc3nnn(-c4ccc(OCC5CCNCC5)cc4)c3n2)C1 [A279, (1R,3R)-3-{3-[4-(piperidin-4-ylmethoxy)-phenyl]-3H-[1,2,3]triazolo[4,5-d]pyrimidin-5-ylamino}-cyclopentanecarboxylic acid amide]
7 | > 6.00 | > 6.00 | > 6.00 | CCOc1ccc(-n2nnc3cnc(N[C@@H]4CC[C@@H](C(N)=O)C4)nc32)nc1 [A178, (1R,3R)-3-[3-(5-ethoxy-pyridin-2-yl)-3H-[1,2,3]triazolo[4,5-d]pyrimidin-5-ylamino]-cyclopentanecarboxylic acid amide]
8 | > 6.00 | > 6.00 | > 6.00 | COc1ccc(-n2nnc3cnc(N[C@H]4CC[C@H](C(N)=O)C4)nc32)cc1 [A137, (1S,3S)-3-[3-(4-methoxy-phenyl)-3H-[1,2,3]triazolo[4,5-d]pyrimidin-5-ylamino]-cyclopentanecarboxylic acid amide]
9 | > 6.00 | > 6.00 | > 6.00 | COCCn1cc(-c2cccc(-n3nnc4cnc(N[C@@H]5CC[C@@H](C(N)=O)C5)nc43)c2)cn1 [A222, (1R,3R)-3-(3-{3-[1-(2-methoxy-ethyl)-1H-pyrazol-4-yl]-phenyl}-3H-[1,2,3]triazolo[4,5-d]pyrimidin-5-ylamino)-cyclopentanecarboxylic acid amide]
10 | > 6.00 | > 6.00 | > 6.00 | NC(=O)[C@@H]1CC[C@@H](Nc2ncc3nnn(-c4ccc(N5CCCC5)cc4)c3n2)C1 [A146, (1R,3R)-3-[3-(4-pyrrolidin-1-yl-phenyl)-3H-[1,2,3]triazolo[4,5-d]pyrimidin-5-ylamino]-cyclopentanecarboxylic acid amide]
11 | > 6.00 | > 6.00 | > 6.00 | COc1ccc(-n2nnc3cnc(N[C@@H]4CCN(c5cnn(C)c5)C4)nc32)cc1 [A115, [3-(4-methoxy-phenyl)-3H-[1,2,3]triazolo[4,5-d]pyrimidin-5-yl]-[(R)-1-(1-methyl-1H-pyrazol-4-yl)-pyrrolidin-3-yl]-amine]
12 | > 6.00 | > 6.00 | > 6.00 | CC(C)(O)Cn1cc(-c2ccc(-n3nnc4cnc(N[C@@H]5CC[C@@H](C(N)=O)C5)nc43)cc2)cn1 [A233, (1R,3R)-3-(3-{4-[1-(2-hydroxy-2-methyl-propyl)-1H-pyrazol-4-yl]-phenyl}-3H-[1,2,3]triazolo[4,5-d]pyrimidin-5-ylamino)-cyclopentanecarboxylic acid amide]
13 | > 6.00 | > 6.00 | > 6.00 | N#CCCn1cc(-c2ccc(-n3nnc4cnc(N[C@@H]5CC[C@@H](C(N)=O)C5)nc43)cc2)cn1 [A217, (1R,3R)-3-(3-{4-[1-(2-cyano-ethyl)-1H-pyrazol-4-yl]-phenyl}-3H-[1,2,3]triazolo[4,5-d]pyrimidin-5-ylamino)-cyclopentanecarboxylic acid amide]
14 | > 6.00 | > 6.00 | > 6.00 | COc1ccc(-n2nnc3cnc(N[C@H]4CC[C@H](S(N)(=O)=O)C4)nc32)cc1 (relative stereo) [A288, (trans)-3-[3-(4-methoxy-phenyl)-3H-[1,2,3]triazolo[4,5-d]pyrimidin-5-ylamino]-cyclopentanesulfonic acid amide]
15 | > 6.00 | > 6.00 | > 6.00 | NC(=O)[C@@H]1CC[C@@H](Nc2ncc3nnn(-c4ccc5c(c4)OCCO5)c3n2)C1 [A156, (1R,3R)-3-[3-(2,3-dihydro-benzo[1,4]dioxin-6-yl)-3H-[1,2,3]triazolo[4,5-d]pyrimidin-5-ylamino]-cyclopentanecarboxylic acid amide]
16 | > 6.00 | > 6.00 | 5.30 to 6.00 | N[C@H]1CC[C@@H](Nc2ncc3nnn(-c4ccc5ncccc5c4)c3n2)C1 [A119, (1S,3R)-N3-(3-quinolin-6-yl-3H-[1,2,3]triazolo[4,5-d]pyrimidin-5-yl)-cyclopentane-1,3-diamine]
17 | > 6.00 | > 6.00 | > 6.00 | Cc1nc2cc(-n3nnc4cnc(N[C@@H]5CC[C@@H](C(N)=O)C5)nc43)ccc2n1C [A183, (1R,3R)-3-[3-(1,2-dimethyl-1H-benzimidazol-5-yl)-3H-[1,2,3]triazolo[4,5-d]-pyrimidin-5-ylamino]-cyclopentanecarboxylic acid amide]
18 | > 6.00 | > 6.00 | > 6.00 | NC(=O)[C@@H]1CC[C@@H](Nc2ncc3nnn(-c4ccc(I)cn4)c3n2)C1 [A177, (1R,3R)-3-[3-(5-iodo-pyridin-2-yl)-3H-[1,2,3]triazolo[4,5-d]pyrimidin-5-ylamino]-cyclopentanecarboxylic acid amide]
19 | 5.30 to 6.00 | > 6.00 | > 6.00 | COCCn1cc(-c2ccc(-n3nnc4cnc(N[C@@H]5CC[C@@H](C(N)=O)C5)nc43)nc2)cn1 [A219, (1R,3R)-3-(3-{5-[1-(2-methoxy-ethyl)-1H-pyrazol-4-yl]-pyridin-2-yl}-3H-[1,2,3]triazolo[4,5-d]pyrimidin-5-ylamino)-cyclopentanecarboxylic acid amide]
20 | > 6.00 | > 6.00 | > 6.00 | CS(=O)(=O)N1CC[C@@H](Nc2ncc3nnn(-c4ccc5ncccc5c4)c3n2)C1 [A269, ((R)-1-methanesulfonyl-pyrrolidin-3-yl)-(3-quinolin-6-yl-3H-[1,2,3]triazolo[4,5-d]pyrimidin-5-yl)-amine]
